The test system of assay [1] is Human Breast Adenocarcinoma MDA-MB-231 Cell Line. Nature of the assay: cells. As for the experimental part:
(§1) For evaluation of cytotoxicity in vitro cells of different human tumour cell lines were purchased from American Type Culture Collection (Rockville, Md., USA): Human Breast Adenocarcinoma Cell Line MDA-MB-231 (ATCC-HTB-26, Lot 3576799), Human Ovary Adenocarcinoma Cell Line SKOV-3 (ATCC-HTB-77, Lot 3038337) and Human Lung Non-Small Cancer Cell Line A549 (ATCC-CCL-185, Lot 3244171). MDA-MB-231 cells were propagated in MEM culture medium with 2 mM L-glutamine, 10% fetal bovine serum (FBS) and antibiotics. SKOV-3 cells were cultured in McCoy's 5A culture medium, supplemented with 1.5 mM L-glutamine, 10% FBS and antibiotics. All media and supplements were purchased from Sigma-Aldrich Co. (St. Louis, Mi., USA). […]
(§2) The cell cultures in the cultivation plates were allowed to adhere for 24 hour of incubation. […] At the end of the incubation period adherent cells were detached by trypsinization and the number of viable cells was counted using trypan blue exclusion test and a hemocytometer. […] The results were expressed as mean cell number±SE and the differences between control and test series evaluated by means of Student's t-test. The drug cytotoxicity was evaluated based on the extent of cell growth inhibition.
(§3) IC50 were based on concentration of doxorubicin. Enhancement factors were calculated versus doxorubicin.

The test system of assay [2] is Human Lung Non-Small Cancer Cell Line A549. Nature of the assay: Cytotoxicity (cell growth inhibition, trypan blue exclusion count) in A549 cultures. The note with it: based on concentration of doxorubicin. The procedure: as §1, §2, §3
In assay [3] the test system is Human Ovary Adenocarcinoma SKOV-3 Cell Line. Nature of the assay: Cytotoxicity (cell growth inhibition, trypan blue exclusion count) in SKOV-3 cultures. Conditions: for docetaxel-doxorubicin mixtures based on the sum of amounts of cytostatica. As for the experimental part: MDA-MB-231 cells were propagated in MEM culture medium with 2 mM L-glutamine, 10% fetal bovine serum (FBS) and antibiotics. SKOV-3 cells were cultured in McCoy's 5A culture medium, supplemented with 1.5 mM L-glutamine, 10% FBS and antibiotics. […] Cell propagation of all lines was carried out in BD Falcon™ 25 or 75 cm^2 cultivation flasks (Becton Dickinson Labware). A549 cells were cultured in Ham's F-12 culture medium with 1 mM L-glutamine, 10% FBS and antibiotics. Cell propagation of all lines was carried out in BD Falcon™ 25 or 75 cm^2 cultivation flasks.
These plates were seeded by cells at 8×10^3 cells/well for MDA-MB-231, at 10×10^3 cells/well for SKOV-3 or at 6×10^3 cells/well for A549 in a volume of 200 μl/well. Both flasks and cultivation plates were incubated for cell growth at 37° C. in a humidified atmosphere of 95% air and 5% CO2.
On day 1 after cell seeding 4 μL solutions of the formulations to be tested with different concentrations in appropriate solvents were added to wells with cultures (dose—response experiments). […] The cells were incubated within 2-4 consecutive days.
EF was calculated versus ADRIAMYCIN®. IC50 for the docetaxel-doxorubicin mixtures is based on the sum of amounts of cytostatica.
as §3

Setting [4] is: SK-OV-3, 72 h, SKOV-3, day 3, mean ± SE, read-out: IC50 day 3.
[5] abbreviates: SK-OV-3, 96 h, SKOV-3, day 4, mean ± SE, read-out: IC50 day 4.

We go through two compounds from US8324274B2, “Drug delivery system for administration of a water soluble, cationic and amphiphilic pharmaceutically active substance” (Ardenia Invesments, Ltd., priority 2007, dated 2012).

One may read the IC50 as the concentration needed to halve the response being measured.

The structures appear in SMILES notation. Counter-ions that a name gives are not always drawn. Like-named read-outs stand apart in the source and are kept apart here.

For `COc1cccc2c1C(=O)c1c(O)c3c(c(O)c1C2=O)C[C@@](O)(C(=O)CO)C[C@@H]3O[C@H]1C[C@H](N)[C@H](O)[C@H](C)O1` [ADRIAMYCIN ®, doxorubicin hydrochloride], the half-maximal inhibitory concentration (IC50) came to 190 nM in assay [1] (MDA-MB-231, 72 h, read-out: IC50 day 3); 51 nM in assay [1] (MDA-MB-231, 96 h, read-out: IC50 day 4); 12 nM in assay [2] (72 h, A549, day 3, mean ± SE, read-out: IC50 day 3); 27 nM in assay [2] (96 h, A549, day 4, mean ± SE, read-out: IC50 day 4); 85 nM in assay [3] (setting [4]); 48 nM in assay [3] (setting [5]).

For the compound `CC(=O)O[C@@]12CO[C@@H]1C[C@H](O)[C@@]1(C)C(=O)[C@H](O)C3=C(C)[C@@H](OC(=O)[C@H](O)[C@@H](NC(=O)OC(C)(C)C)c4ccccc4)C[C@@](O)([C@@H](OC(=O)c4ccccc4)[C@H]21)C3(C)C` [Docetaxel, docetaxel], the 50% inhibitory concentration (IC50) turned out to be 90.7 nM in assay [3] (setting [4]) and 28.5 nM in assay [3] (setting [5]).
